This note sets out measurements from ChEMBL document CHEMBL1138452, “1-Sulfonylindazoles as potent and selective 5-HT6 ligands” (Bioorg Med Chem Lett, 2009).

Series [1] concerns the target T1, 5-hydroxytryptamine receptor 6 (Homo sapiens, UniProt P50406). Nature of the series: Antagonist activity at human cloned 5HT6 receptor expressed in human HeLa cells assessed as blockage of 5-HT-stimulated cAMP formation. The format is functional, cell-based. On the technique in general: Changes in cAMP serve as a functional read-out for many G protein-coupled receptors.

In series [2] the target is T1, 5-hydroxytryptamine receptor 6. Nature of the series: Agonist activity at human 5HT6 receptor expressed in CHOK1 cells assessed as increase in 5HT-induced intracellular calcium level at 0.1 to 10 uM by FLIPR assay. As to conditions: CHO-K1. The format is functional, cell-based. (In general: A change in cytosolic calcium serves as a functional read-out for many receptors and channels.)

Series [3] has the same target. The series can be described thus: Displacement of [3H]LSD from human cloned 5HT6 receptor expressed in human HeLa cells. The format is cell-based. In general terms: Displacement assays read how much labelled ligand stays bound in the presence of the test substance.
Series [4] is described as follows: Metabolic stability in human microsomes assessed as half life. In kind it is ADME, Microsome.
Series [5] in a line: Metabolic stability in rat microsomes assessed as half life. In kind it is ADME, Microsome.
The target in series [6] is Cytochrome P450 3A4 (Homo sapiens, UniProt P08684). The series can be described thus: Inhibition of CYP3A4. In kind it is ADME.
In series [7] the target is Cytochrome P450 2D6 (Homo sapiens, UniProt P10635). Nature of the series: Inhibition of CYP2D6. In kind it is ADME.
Series [8] has as its target Cytochrome P450 2C9 (Homo sapiens, UniProt P11712). The series can be described thus: Inhibition of CYP2C9. In kind it is ADME.
The nature of series [9]: Oral bioavailability in Sprague-Dawley rat at 10 mg/kg. The format is ADME, organism-based. As to conditions: in vivo.
Series [10] concerns the target T2, 5-hydroxytryptamine receptor 1A (Homo sapiens, UniProt P08908).
T2 sequence (P08908 whole entry): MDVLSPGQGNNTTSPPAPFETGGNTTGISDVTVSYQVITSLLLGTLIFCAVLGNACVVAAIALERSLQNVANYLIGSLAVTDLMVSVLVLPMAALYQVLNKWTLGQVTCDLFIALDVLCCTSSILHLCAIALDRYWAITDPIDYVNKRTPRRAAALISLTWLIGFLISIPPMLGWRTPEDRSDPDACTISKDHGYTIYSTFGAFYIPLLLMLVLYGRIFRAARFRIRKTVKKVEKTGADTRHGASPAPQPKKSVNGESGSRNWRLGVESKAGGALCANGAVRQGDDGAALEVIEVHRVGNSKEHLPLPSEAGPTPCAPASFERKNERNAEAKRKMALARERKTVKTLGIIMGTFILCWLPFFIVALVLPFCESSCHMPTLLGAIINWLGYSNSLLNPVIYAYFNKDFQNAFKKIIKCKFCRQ
Nature of the series: Binding affinity to 5HT1a receptor.

The target in series [11] is 5-hydroxytryptamine receptor 1B (Homo sapiens, UniProt P28222). Nature of the series: Binding affinity to 5HT1b receptor.
The target in series [12] is 5-hydroxytryptamine receptor 1D (Homo sapiens, UniProt P28221). Nature of the series: Binding affinity to 5HT1d receptor.
Series [13] deals with 5-hydroxytryptamine receptor 2B (Homo sapiens, UniProt P41595). Nature of the series: Binding affinity to 5HT2b receptor.
Series [14] has as its target T3, 5-hydroxytryptamine receptor 2C (Homo sapiens, UniProt P28335).
T3 sequence (P28335 whole entry): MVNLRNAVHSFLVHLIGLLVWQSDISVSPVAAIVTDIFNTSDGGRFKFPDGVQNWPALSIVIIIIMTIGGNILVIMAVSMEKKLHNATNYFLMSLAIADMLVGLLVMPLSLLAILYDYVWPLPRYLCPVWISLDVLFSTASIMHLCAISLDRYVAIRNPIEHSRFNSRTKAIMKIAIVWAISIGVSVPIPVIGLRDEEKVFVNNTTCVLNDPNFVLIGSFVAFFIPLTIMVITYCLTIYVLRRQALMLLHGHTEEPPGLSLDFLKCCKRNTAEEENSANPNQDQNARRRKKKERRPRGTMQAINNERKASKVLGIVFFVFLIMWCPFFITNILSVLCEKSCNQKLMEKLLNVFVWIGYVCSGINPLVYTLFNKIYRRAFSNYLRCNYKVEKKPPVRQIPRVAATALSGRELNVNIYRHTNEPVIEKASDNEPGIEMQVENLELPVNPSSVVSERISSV
Nature of the series: Binding affinity to 5HT2c receptor.

In series [15] the target is 5-hydroxytryptamine receptor 7 (Homo sapiens, UniProt P34969). Nature of the series: Binding affinity to 5HT7 receptor.
Series [16] has as its target T4, Alpha-2A adrenergic receptor (Homo sapiens, UniProt P08913).
T4 sequence (P08913 whole entry): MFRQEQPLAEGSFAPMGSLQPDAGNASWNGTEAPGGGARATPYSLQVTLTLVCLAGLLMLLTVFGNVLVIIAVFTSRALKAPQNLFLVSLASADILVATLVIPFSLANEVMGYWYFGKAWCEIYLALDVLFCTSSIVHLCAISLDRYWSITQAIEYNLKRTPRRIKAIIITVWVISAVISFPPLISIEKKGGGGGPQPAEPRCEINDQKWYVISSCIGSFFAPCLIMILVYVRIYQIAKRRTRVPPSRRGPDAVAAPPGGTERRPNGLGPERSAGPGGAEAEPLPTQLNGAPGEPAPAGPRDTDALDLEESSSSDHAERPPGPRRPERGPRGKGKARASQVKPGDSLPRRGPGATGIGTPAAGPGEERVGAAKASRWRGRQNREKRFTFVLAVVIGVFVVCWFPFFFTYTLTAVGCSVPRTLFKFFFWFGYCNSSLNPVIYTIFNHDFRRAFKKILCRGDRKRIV
The series can be described thus: Binding affinity to adrenergic alpha2A receptor.

Series [17] addresses D(2) dopamine receptor (Homo sapiens, UniProt P14416). Nature of the series: Binding affinity to dopamine D2 receptor.
In series [18] the test system is Rattus norvegicus. Nature of the series: Cognitive enhancing effect in Sprague-Dawley rat assessed as reversal of 24 hrs delay-induced retention deficit behavior at 10 mg/kp, po by novel object recognition assay. In kind it is functional, organism-based.

Active and inactive are the calls of the source. No cut-off for these calls is given here.

Chain of 5-hydroxytryptamine receptor 1B (P28222 whole entry): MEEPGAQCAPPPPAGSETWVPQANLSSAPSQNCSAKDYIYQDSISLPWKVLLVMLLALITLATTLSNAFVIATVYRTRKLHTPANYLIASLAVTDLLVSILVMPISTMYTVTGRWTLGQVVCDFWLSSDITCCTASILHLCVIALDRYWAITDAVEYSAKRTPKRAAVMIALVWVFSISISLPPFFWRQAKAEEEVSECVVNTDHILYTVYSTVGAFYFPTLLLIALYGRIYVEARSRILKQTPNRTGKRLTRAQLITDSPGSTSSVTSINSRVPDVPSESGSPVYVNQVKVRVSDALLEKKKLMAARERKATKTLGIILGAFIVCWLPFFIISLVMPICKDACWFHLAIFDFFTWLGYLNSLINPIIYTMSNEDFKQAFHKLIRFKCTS
Chain of Cytochrome P450 2D6 (P10635 whole entry): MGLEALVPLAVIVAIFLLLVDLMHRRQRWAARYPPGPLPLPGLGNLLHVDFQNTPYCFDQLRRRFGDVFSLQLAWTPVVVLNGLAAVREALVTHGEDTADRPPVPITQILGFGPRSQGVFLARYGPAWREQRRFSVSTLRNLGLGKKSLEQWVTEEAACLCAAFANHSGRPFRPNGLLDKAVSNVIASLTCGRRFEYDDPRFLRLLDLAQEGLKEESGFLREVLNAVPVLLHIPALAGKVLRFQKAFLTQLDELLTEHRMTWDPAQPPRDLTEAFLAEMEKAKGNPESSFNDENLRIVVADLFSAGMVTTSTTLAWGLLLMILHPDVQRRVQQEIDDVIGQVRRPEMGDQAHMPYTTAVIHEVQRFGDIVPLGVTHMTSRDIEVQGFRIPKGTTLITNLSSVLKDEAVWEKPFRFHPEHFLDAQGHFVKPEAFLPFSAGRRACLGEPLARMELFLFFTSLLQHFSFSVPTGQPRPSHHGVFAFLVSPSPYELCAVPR
Chain of Cytochrome P450 3A4 (P08684 whole entry): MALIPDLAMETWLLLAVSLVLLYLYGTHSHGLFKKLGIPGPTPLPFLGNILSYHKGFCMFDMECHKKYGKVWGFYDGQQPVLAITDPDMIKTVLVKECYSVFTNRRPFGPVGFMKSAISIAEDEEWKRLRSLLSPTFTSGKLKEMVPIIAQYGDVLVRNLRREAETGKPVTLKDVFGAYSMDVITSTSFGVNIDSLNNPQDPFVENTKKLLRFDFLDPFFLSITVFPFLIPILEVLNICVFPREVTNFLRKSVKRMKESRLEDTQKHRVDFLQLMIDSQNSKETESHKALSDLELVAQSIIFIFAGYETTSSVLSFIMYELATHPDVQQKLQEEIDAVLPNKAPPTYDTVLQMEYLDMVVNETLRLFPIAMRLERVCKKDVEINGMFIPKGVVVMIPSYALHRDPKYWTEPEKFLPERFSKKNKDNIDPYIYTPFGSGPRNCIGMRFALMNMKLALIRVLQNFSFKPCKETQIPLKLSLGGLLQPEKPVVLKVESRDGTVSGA
Chain of 5-hydroxytryptamine receptor 1D (P28221 whole entry): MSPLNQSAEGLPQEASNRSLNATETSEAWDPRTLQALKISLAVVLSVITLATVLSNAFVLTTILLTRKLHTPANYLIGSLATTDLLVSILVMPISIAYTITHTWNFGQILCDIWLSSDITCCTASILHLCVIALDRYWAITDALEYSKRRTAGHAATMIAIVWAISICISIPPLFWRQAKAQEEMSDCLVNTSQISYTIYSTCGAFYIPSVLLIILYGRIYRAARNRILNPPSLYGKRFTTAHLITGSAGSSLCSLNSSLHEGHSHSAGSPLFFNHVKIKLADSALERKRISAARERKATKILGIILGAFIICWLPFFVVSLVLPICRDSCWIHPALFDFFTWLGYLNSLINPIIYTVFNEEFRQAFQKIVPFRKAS
Chain of 5-hydroxytryptamine receptor 2B (P41595 whole entry): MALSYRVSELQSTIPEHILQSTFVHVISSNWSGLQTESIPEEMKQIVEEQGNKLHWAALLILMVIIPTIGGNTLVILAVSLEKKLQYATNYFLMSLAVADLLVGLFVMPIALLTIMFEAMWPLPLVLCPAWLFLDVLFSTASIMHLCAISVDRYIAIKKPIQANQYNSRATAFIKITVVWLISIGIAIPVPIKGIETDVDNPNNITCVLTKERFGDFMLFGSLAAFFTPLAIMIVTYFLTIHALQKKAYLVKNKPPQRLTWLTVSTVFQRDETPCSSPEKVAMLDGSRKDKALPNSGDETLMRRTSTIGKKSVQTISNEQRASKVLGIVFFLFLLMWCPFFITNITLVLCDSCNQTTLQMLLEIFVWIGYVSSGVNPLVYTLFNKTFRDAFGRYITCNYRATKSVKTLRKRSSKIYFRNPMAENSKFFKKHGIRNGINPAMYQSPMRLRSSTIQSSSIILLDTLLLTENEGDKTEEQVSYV
T1 sequence (P50406 whole entry): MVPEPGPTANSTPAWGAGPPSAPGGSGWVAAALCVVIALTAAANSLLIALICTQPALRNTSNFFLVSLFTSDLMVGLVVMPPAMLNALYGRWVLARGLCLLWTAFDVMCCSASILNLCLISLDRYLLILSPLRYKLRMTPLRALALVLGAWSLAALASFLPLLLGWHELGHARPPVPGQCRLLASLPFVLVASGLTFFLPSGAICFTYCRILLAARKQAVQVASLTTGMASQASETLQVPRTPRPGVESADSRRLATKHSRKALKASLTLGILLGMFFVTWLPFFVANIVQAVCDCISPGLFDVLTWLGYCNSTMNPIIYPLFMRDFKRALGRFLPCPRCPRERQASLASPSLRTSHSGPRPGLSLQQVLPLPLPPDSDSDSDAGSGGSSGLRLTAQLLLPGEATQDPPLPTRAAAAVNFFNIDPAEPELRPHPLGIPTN
Chain of 5-hydroxytryptamine receptor 7 (P34969 whole entry): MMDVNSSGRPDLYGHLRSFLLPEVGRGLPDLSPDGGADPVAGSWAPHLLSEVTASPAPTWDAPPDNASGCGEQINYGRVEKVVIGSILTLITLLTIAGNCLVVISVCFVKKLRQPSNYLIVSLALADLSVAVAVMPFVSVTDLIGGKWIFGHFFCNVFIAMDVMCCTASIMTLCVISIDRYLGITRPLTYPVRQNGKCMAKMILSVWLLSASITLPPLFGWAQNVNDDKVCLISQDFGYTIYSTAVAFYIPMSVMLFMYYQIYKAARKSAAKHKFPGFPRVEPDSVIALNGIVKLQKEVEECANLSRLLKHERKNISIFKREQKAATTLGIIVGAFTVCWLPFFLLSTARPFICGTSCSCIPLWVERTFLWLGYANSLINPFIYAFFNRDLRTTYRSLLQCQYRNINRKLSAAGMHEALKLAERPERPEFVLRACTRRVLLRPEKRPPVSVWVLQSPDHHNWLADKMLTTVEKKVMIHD
Chain of Cytochrome P450 2C9 (P11712 whole entry): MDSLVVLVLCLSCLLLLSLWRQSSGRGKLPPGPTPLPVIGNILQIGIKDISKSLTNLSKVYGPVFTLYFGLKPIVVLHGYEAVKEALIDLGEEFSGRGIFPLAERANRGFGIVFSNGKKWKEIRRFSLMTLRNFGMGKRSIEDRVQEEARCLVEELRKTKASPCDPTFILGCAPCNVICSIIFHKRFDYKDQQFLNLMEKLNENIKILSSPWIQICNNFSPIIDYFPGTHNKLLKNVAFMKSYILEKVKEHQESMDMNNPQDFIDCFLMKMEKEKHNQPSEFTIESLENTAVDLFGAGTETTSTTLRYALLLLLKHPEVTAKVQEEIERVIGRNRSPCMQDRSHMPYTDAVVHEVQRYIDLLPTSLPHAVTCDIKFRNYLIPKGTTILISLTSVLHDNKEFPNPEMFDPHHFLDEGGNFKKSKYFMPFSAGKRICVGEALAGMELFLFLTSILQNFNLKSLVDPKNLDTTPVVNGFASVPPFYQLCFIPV
Chain of D(2) dopamine receptor (P14416 whole entry): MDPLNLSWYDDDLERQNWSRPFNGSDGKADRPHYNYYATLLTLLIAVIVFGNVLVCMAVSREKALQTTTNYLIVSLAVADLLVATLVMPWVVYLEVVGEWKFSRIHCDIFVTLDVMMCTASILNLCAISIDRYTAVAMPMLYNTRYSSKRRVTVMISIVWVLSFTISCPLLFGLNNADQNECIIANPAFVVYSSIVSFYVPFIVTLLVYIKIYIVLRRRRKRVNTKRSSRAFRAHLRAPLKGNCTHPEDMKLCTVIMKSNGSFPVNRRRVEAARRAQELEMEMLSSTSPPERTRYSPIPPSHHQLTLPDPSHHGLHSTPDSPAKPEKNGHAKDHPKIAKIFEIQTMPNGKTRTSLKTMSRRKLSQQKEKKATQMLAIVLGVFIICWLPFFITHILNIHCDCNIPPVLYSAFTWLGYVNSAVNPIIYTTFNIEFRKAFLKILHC

As usually defined, the IC50 is the midpoint of a concentration-inhibition curve. In the case of `CN(C)CCC(=O)Nc1ccc2cnn(S(=O)(=O)c3cccc4ccccc34)c2c1`, in series [1], the concentration for half-maximal inhibition (IC50) came out at 53 nM and the Imax was 100%.
Turning to `NCCC(=O)Nc1ccc2cnn(S(=O)(=O)c3cccc4ccccc34)c2c1`, the result in series [2] was inactive.
Broadly, the Ki is the dissociation constant of the complex between target and ligand, obtained from inhibition or displacement. A high value points to a looser hold on the target. `O=C(Nc1ccc2cnn(S(=O)(=O)c3cccc4ccccc34)c2c1)[C@H]1CCCNC1` showed a Ki in series [3] of 3.2 nM. Also, the result in series [1] was Active.
`O=C(Nc1ccc2cnn(S(=O)(=O)c3cccc4ccccc34)c2c1)[C@@H]1CCCNC1` showed a Ki in series [3] of 4 nM. Also, the outcome in series [1] was Active.
In the case of `O=S(=O)(c1cccc2ccccc12)n1ncc2ccc(NCC3CCNCC3)cc21`, the affinity in [3], expressed as Ki, was 18 nM.
As usually defined, the half-life is how long it takes for the measured level to halve. Broadly, the bioavailability is the share of a dose that reaches the circulation, judged against a reference dose that is usually intravenous. Read a low bioavailability as little systemic uptake. For the molecule `NCCC(=O)Nc1cccc2c1cnn2S(=O)(=O)c1cccc2ccccc12`, the half-life was more than 30 min in series [4] and 28 min in [5]. The concentration for half-maximal inhibition (IC50) in series [6] came to 30000 nM; in [7] it was 200000 nM; in series [8] it was 7000 nM; in series [1] it was 11 nM. In addition, the bioavailability in series [9] amounted to 7%. In addition, in [1], the Imax came to 100%. In addition, the Ki in [10] was 6400 nM; in series [11], more than 2000 nM; in series [12] it was more than 2000 nM; in series [13] it was 155 nM; in [14], more than 2000 nM; in [15] it was 5100 nM. Besides, the Ki in series [16] and in [17] was more than 2000 nM each time.
As to `O=C(CCN1CCCCC1)Nc1ccc2cnn(S(=O)(=O)c3cccc4ccccc34)c2c1`, in series [1], the 50% inhibitory concentration (IC50) was 170 nM and the Imax was determined as 100%.
Take `CNCCC(=O)Nc1ccc2cnn(S(=O)(=O)c3cccc4ccccc34)c2c1`: in series [1], the 50% inhibitory concentration (IC50) was 26 nM and the Imax was 100%.
On to `O=C(Nc1ccc2cnn(S(=O)(=O)c3cccc4ccccc34)c2c1)C1CCCNC1` (racemic), for which the outcome in series [2] was inactive. Moreover, the half-life in [4] was more than 30 min; in series [5] it was 8 min. Besides, the IC50 is 260000 nM in series [6], 110000 nM in series [7], 140000 nM in series [8] and 10 nM in series [1]. Besides, the bioavailability in series [9] turned out to be 24%. Moreover, the outcome in series [18] was Active. The Ki was 1.3 nM in series [3]; 5600 nM in series [10]; 1800 nM in series [11]; more than 2000 nM in series [12]; 174 nM in [13]; more than 2000 nM in series [14]. In addition, the inhibition constant (Ki) was 5800 nM in series [15], more than 2000 nM in series [16] and more than 2000 nM in [17]. In addition, in series [1], the Imax was 100%.
In the case of `O=C(Nc1ccc2cnn(S(=O)(=O)c3cccc4ccccc34)c2c1)C1CCNCC1`, the result in series [2] was inactive. In addition, the half-life in series [4] was more than 30 min; in [5], 11 min. Also, the IC50 in series [6] worked out at 61000 nM; in series [7] it was 350000 nM; in series [8], 370000 nM; in series [1], 8 nM. In addition, in series [9], the bioavailability was 5%. Also, the Imax in series [1] worked out at 100%. For the same molecule, the inhibition constant Ki in [10] was 8500 nM; in [11], more than 2000 nM; in series [12] it was more than 2000 nM; in series [13], 130 nM; in [14], more than 2000 nM; in [15], 6900 nM. Moreover, the inhibition constant (Ki) in series [16] and in series [17] was more than 2000 nM throughout.
As for `CCN(CC)CCC(=O)Nc1ccc2cnn(S(=O)(=O)c3cccc4ccccc34)c2c1`, in [1], the IC50 turned out to be 260 nM and the Imax came to 100%.
